PubChem BioAssay (NCI)
Values joined by “and” are separate entries in the source; they are usually repeats but may differ in a detail not shown here. Equal entries are not always repeated.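 Grown in 96-well plates, cells were treated for 48 hours with each compound at five concentrations. Insufficient inhibition: endpoint recorded as highest concentration tested. GI50 is the concentration that inhibits growth by half. The concentration for full growth arrest is given as TGI.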

Experiments:
Test in all cases: inhibition of tumour cell growth, NCI panel, 48 h
HS 578T breast = test system: HS 578T breast
MDA-N = test system: MDA-N
BT-549 breast = test system: BT-549 breast
PC-3 prostate = test system: PC-3 prostate
XF 498 CNS = test system: XF 498 CNS
T-47D breast = test system: T-47D breast
SNB-78 CNS = test system: SNB-78 CNS
RXF-631 renal = test system: RXF-631 renal

Row | Compound | GI50 (HS 578T breast) [µM] | TGI (HS 578T breast) [µM] | GI50 (MDA-N) | TGI (MDA-N) [µM] | GI50 (BT-549 breast) [µM] | TGI (BT-549 breast) [µM] | GI50 (PC-3 prostate) [µM] | TGI (PC-3 prostate) [µM] | TGI (XF 498 CNS) | TGI (T-47D breast) [µM] | TGI (SNB-78 CNS) [µM] | GI50 (T-47D breast) | GI50 (XF 498 CNS) | TGI (RXF-631 renal) [µM] | GI50 (SNB-78 CNS) [µM]
1 | NC(C(=O)[O-])C(=O)[O-].NC1CCCCC1N.[Pt+4] | > 100 | > 100 | 7.47 µM | > 100 | > 100 | > 100 | 4.67 | > 100 | – | – | – | – | – | – | –
2 | Cc1cc2c3ccccc3n(C)c2c2c1C(=O)C=CC2=O | – | 55.2 | – | 25.5 | – | 46.4 | – | 21.5 | 31.3 µM | 19.4 | 49.1 | – | – | – | –
3 | COC(=O)CNC(=O)[C@@H](OC)[C@@H]1Cc2cc3cc(OC4CC(OC5CC(O)C(O)C(C)O5)C(O)C(C)O4)c(C)c(O)c3c(O)c2C(=O)[C@H]1OC1CC(OC2CC(OC3CC(C)(O)C(O)C(C)O3)C(O)C(C)O2)C(O)C(C)O1 (some centres not stated) | 0.123 | 2.64 | – | – | 0.114 | 1.1 | 0.234 | > 50 | – | > 50 | – | 0.256 µM | – | – | –
4 | Cn1nc(-c2ccccc2)c(C(=O)/C=C/c2ccccc2)c(N2CCOCC2)c1=O | – | – | – | – | – | – | – | – | 30.7 µM | – | – | – | – | – | –
5 | CC1OC2CC(=O)OC2C2=C1C(=O)c1c(O)c3c(c(O)c1C2=O)C1CC(O)C3(O)C(C)O1 (configuration not stated) | 0.429 | 2.92 | – | – | 1.1 | 2.32 | 0.533 | 6.47 | – | 1.55 | – | 0.336 µM | – | – | –
6 | CC12CCC(=O)C=C1CCC1C2C(O)CC2(C)C(c3csc(N)n3)CCC12 (configuration not stated) | – | > 100 | – | > 100 | – | > 100 | – | > 100 | – | > 100 | – | – | – | – | –
7 | COc1cc(Nc2nc(N[C@H]3CCCC[C@@H]3N)nc3cc[nH]c(=O)c23)cc(OC)c1 | 1.14 | 15.2 | – | – | 1.57 | 5.03 | 2.53 | 20.8 | – | 30.2 | – | 12.8 µM | – | – | –
8 | C=C1CC[C@@H]2[C@](C)(COC(C)=O)[C@H](OC(C)=O)CC[C@@]2(C)[C@@H]1CC(Nc1ccc(S(=O)(=O)Nc2nccc(C)n2)cc1)C1=CCOC1=O (some centres not stated) | 6.65 | 43 | – | – | 2.3 | 5.61 | 4.46 | 15.7 | – | 8.33 | – | 2.77 µM | – | – | –
9 | Cc1ccc(C(O)c2cnc(C)n2Cc2ccccc2)cc1 (configuration not stated) | – | > 100 | – | > 100 | – | > 100 | – | > 100 | – | – | – | – | – | – | –
10 | O=C(CCl)N1c2ccccc2Sc2c1ccc1ccccc21 | 4.17 | 43.9 | – | – | 1.3 | 2.63 | 1.74 | 4.45 | – | 6.07 | – | 2.19 µM | – | – | –
11 | CCOc1ccc(NCc2cc(OC)c(OC)c(OC)c2)cc1 | 0.823 | > 100 | 0.565 µM and 0.446 µM | > 100 | – | > 100 | – | > 100 | > 95.6 µM and 62 µM | > 100 | > 100 | 1.66 µM and 4.48 µM | 9.37 µM and 3 µM | – | –
12 | CCc1cc(O)c(Cl)c(C)c1Cl | – | 67.7 | – | 29.9 | – | 36 | – | 40.2 | – | > 100 | – | – | – | – | –
13 | OCCCCCCOc1ccc(-c2cc(-c3ccccn3)nc(-c3ccccn3)c2)cc1 | – | 4.61 | – | – | – | 9.21 | – | 5.31 | 5.32 µM | 5.74 | 10.9 | – | – | – | –
14 | COc1cccc(C2c3cc4c(cc3OC(O)(CO)C2C(=O)O)OCO4)c1 (configuration not stated) (tested in a mixture with another compound) | – | – | – | – | – | – | – | – | – | – | – | – | – | > 100 | –
15 | CCCCN(Cc1ccc(F)cc1)c1ccc(CO)c(Cl)c1 | 17.7 | 40.9 | – | – | 19.1 | 34.6 | 13.8 | 28.4 | – | 10.2 | – | 1.27 µM | – | – | –
16 | CC(=O)[O-].CC(=O)[O-].[NH2-].[Pt+2].c1ccc2cnccc2c1 | 60.4 | > 100 | – | – | – | – | > 100 | > 100 | – | 24.7 | – | 1.61 µM | – | – | –
17 | CN(CCOc1ccc(C#N)cc1)CCOc1ccc(C#N)cc1 | 13.8 | > 100 | – | – | 20.5 | > 100 | 41.6 | > 100 | – | > 100 | – | > 100 µM | – | – | –
18 | Fc1cccc(COc2ccc(Nc3ncnc4cc(-c5ccc[nH]5)sc34)cc2Cl)c1 | 4.53 | 21.2 | – | – | 0.977 | 14.9 | 0.77 | > 15.7 | – | 7.35 | – | 0.0977 µM | – | – | –
19 | CN(C)C(=S)N=Nc1c(O)[nH]c2ccccc12 | 2.95 | 67.6 | – | – | 0.763 | 20.8 | 0.566 | 29.7 | – | 10.2 | – | 0.404 µM | – | – | –
20 | CC(C)NC(=O)OCCS(=O)c1c(Cl)c(Cl)nn1C (configuration not stated) | – | > 100 | – | > 100 | – | – | – | > 100 | – | > 100 | – | – | – | – | –
21 | CC(C)C1CC(O)O[C@@H]([C@@H](C)[C@H]2CC(=O)[C@@H]3[C@@H]4[C@@H](O)[C@H](O)[C@H]5[C@@H](O)[C@H](O)CC[C@]5(C)[C@H]4CC[C@]23C)C1 (some centres not stated) | – | – | – | – | – | – | – | – | 56 µM | – | > 100 | – | – | – | –
22 | CC1C(=O)C(C)C(c2ccccc2)N(N=O)C1c1ccccc1 (configuration not stated) | 28.6 | 186 | – | 306 | – | – | – | 754 | 73.8 µM and 214 µM | 311 | > 766 | – | 53.2 µM | – | 220
23 | CN(C)CCOc1ccc2c(c1)C/C(=C/c1ncc([N+](=O)[O-])n1C)C2=O | – | > 49.6 | – | 16.8 | – | 3.74 | – | 18.3 | – | 32.8 | – | – | – | – | –
24 | CC(C)CC1=[N+]=C(NC#N)N=C(CCC(=O)Nc2ccccc2[N+](=O)[O-])C1 | – | – | – | – | – | – | – | – | > 100 µM | – | – | – | – | – | –
25 | CN(C)c1ccc2cc(-c3ccccc3F)c(N)nc2c1 | 2.83 | 18.5 | – | – | 2.57 | 10.6 | 2.21 | 15.2 | – | 13.6 | – | 1.26 µM | – | – | –
26 | COc1ccc2c3c(c(=O)n(C)c2c1OC)C=CC(C)(C)O3 | – | 78.4 | – | 62.2 | – | > 100 | – | > 100 | – | > 100 | – | – | – | – | –
27 | CCC12CCCC(=O)N1C(CO)C(c1ccccc1)O2 (configuration not stated) | – | – | – | – | – | – | – | – | > 100 µM | – | > 100 | – | – | – | –
28 | CC(=O)n1c2ccccc2c2nc3nc(Oc4ccc(C)cc4)c4ccccc4c3cc21 | – | – | – | – | – | – | – | – | – | – | > 100 | – | – | – | –
29 | CCCCCCCCCCCC[n+]1ccc(CCCCCCCCC)cc1 | – | – | – | – | – | – | 0.597 | 1.93 | – | 1.54 | – | 0.28 µM | – | – | –
